US4082881A, “Topical and other type pharmaceutical formulations containing isosorbide carrier” (E. R. Squibb & Sons, Inc., priority 1976, dated 1978)

Legend:
[1] = solubility of the steroid in water and in hydrocarbon and other vehicles; assay type: physicochemical
[2] = solubility of econazole nitrate in water and in the isosorbide preparations; assay type: physicochemical

| Structure (SMILES) | solubility in hydrocarbon vehicles ([1]; mineral oil, petrolatum or polyethylene gelled mineral oil, compared with water) | solubility ([1]; water) | solubility in water-soluble emulsifiers and oil liquids or emollients ([1]; water-soluble emulsifiers and oil liquids or emollients suggested for ointments, gels, creams and lotions) | solubilized and available econazole nitrate relative to a conventional lotion or cream ([2]; in these preparations (Econazole Cream 0.5%, Econazole Lotion 0.5%) vs conventional lotion or cream, about) | solubility ([2]; water) |
| --- | --- | --- | --- | --- | --- |
| CC1(C)O[C@@H]2C[C@H]3[C@@H]4CCC5=CC(=O)CC[C@]5(C)[C@@]4(F)[C@@H](O)C[C@]3(C)[C@]2(C(=O)CCl)O1 [21-chloro-9α-fluoro-Δ^4-pregnene-11β,16α,17α-triol-3,20-dione 16,17-acetonide] | even less soluble | < 5 µg/mL | undesirably low solubility | – | – |
| Clc1ccc(COC(Cn2ccnc2)c2ccc(Cl)cc2Cl)cc1 (centres unmarked) [econazole nitrate] | – | – | – | ≥ 5 times | ~1000 µg/mL |
